Source: US20120329761A1, “USE OF TIGECYCLINE FOR TREATMENT OF CANCER” (UNIVERSITY HEALTH NETWORK, priority 2010, published 2012)

Legend:
Format in all cases: cell-based, human
[1] = system: TEX cells; experiment: Chemical library screen, MTS assay; conditions: 10 μM, 72 hours
From the text: (§1) To identify compounds active against leukemia stem cells, a library of drugs (n=312) with well-characterized pharmacokinetics and toxicology and a wide therapeutic window was compiled. This library was then screened to identify agents that reduced the viability of TEX and M9-ENL1 cells. TEX and M9-ENL1 cells were derived from lineage-depleted human cord blood cells (Lin-CB) transduced with TLS-ERG or MLL-ENL oncogenes, respectively, and, as shown previously, display properties of stem cells including hierarchal differentiation and marrow repopulation^14,16. In this screen, TEX and M9-ENL1 cells were treated with aliquots of the compounds. After incubation, cell growth and viability was measured by the MTS assay. From this screen, tigecycline was identified.
(§2) TEX, and M9-ENL-1 cells were seeded into 96-well polystyrene tissue culture plates (Corning). […] 72 (TEX) and 48 (M9-ENL-1) hours after incubation, cell growth and viability was measured by MTS assay. […]
(§3) Cell growth and viability was assessed by the MTS assay (Promega, Madison, Wis.) according to the manufacturer's instructions. Apoptosis and cell death was measured by Annexin V-fluoroscein isothiocyanate (FITC; Biovision Research Products, Mountain View, Calif.), propidium iodide staining and flow cytometry according to the manufacturer's instructions and as previously described^30. […]

[2] = system: M9-ENL1 cells; experiment: Chemical library screen, MTS assay; conditions: 10 μM, 48 hours
From the text: as §1, §2, §3

[3] = system: normal hematopoietic cells; experiment: Mitochondrial membrane potential, JC-1 dye; conditions: normal hematopoietic cells from two G-CSF mobilized normal donors
Protocol: (§4) FIG. 4. Tigecycline decreases mitochondrial Cox-1 protein levels in TEX cells. (A) Cells from TEX, OCI-AML2 and two primary AML patients were treated with increasing concentrations (2.5 μM and 5 μM) of tigecycline for 36 and 48 hours of tigecycline. Total proteins were extracted and analyzed by western blotting for Cox-1, Cox-2, Cox-4, grp78, XIAP, actin and tubulin. (B) TEX and AML patient cells were treated with increasing concentrations (2.5 μM and 5 μM) of tigecycline. Cox-1, Cox-2, and Cox-4 mRNA expression relative 18S was determined by quantitative RT-PCR. Data is shown as mean±SD. (C) TEX cells were treated with increasing concentrations of tigecycline and chloramphenicol (CAP) for 72 hours. Complex I, II and IV enzyme activity relative to citrate synthase activity was determined as described in materials and methods. (D) Cells from TEX, primary AML patients, and normal donors were treated with increasing concentrations of tigecycline. Mitochondrial membrane potential (Δψ) was determined by staining cells with JC-1 dye, and flow cytometry analysis (Red/Green ratio). Reactive oxygen species generation (ROS) was determined by staining with h2-DCFDA and Dihydroethidium (DHE).
(§5) To measure mitochondrial membrane potential, cells were treated with tigecycline similarly as described above and then washed twice with PBS and incubated with 5 μM of 5,5′,6,6′-tetrachloro-1,1′,3,3′-tetraethyl benzimidazolylcarbocyanine iodide (JC-1, Sigma-Aldrich) for 20 minutes at 37° C. Each sample was then washed twice with 1 mL PBS and resuspended in 500 μL PBS prior to being read on a BD FACSCalibur. Samples were excited at 488 nm and emission was collected at 526 nm (green) and 595 nm (red). Analysis was conducted using FlowJo software (TreeStar Inc). […]
(§6) During oxidative phosphorylation, the intermediate between oxygen reduction and ATP synthesis is the electrochemical proton gradient, comprised mostly of the mitochondrial membrane potential. […] The effect of tigecycline treatment on the mitochondrial membrane potential as determined by the carbocyanine dye JC-1 was examined. […]

[4] = system: primary AML samples; experiment: Mitochondrial membrane potential, JC-1 dye; conditions: three primary AML samples, 5 μM, times preceding onset of cell death
Protocol: as §4, §5, §6

[5] = system: TEX cells; experiment: Mitochondrial membrane potential, JC-1 dye; conditions: 5 μM, times preceding onset of cell death
Protocol: as §4, §5, §6

CN(C)c1cc(NC(=O)CNC(C)(C)C)c(O)c2c1C[C@H]1C[C@H]3[C@H](N(C)C)C(O)=C(C(N)=O)C(=O)[C@@]3(O)C(O)=C1C2=O [tigecycline]
screen result, cell growth and viability [1]: identified | screen result, cell growth and viability [2]: identified | loss of mitochondrial membrane potential [3]: not seen | mitochondrial membrane potential (JC-1 Red/Green ratio) [4]: decreased mitochondrial membrane potential | mitochondrial membrane potential (JC-1 Red/Green ratio) [5]: decreased mitochondrial membrane potential
